Values of other authors, collected in patent US20240207251A1, “PHARMACEUTICAL COMPOSITION CONTAINING ARTESUNATE OR SALT THEREOF AND PYRONARIDINE OR SALT THEREOF, FOR ANTIPYRESIS, ANTI-INFLAMMATORY EFFICACY, ANTI-VIRAL EFFICACY AND TREATMENT OR PREVENTION OF COVID-19, AND METHOD USING SAME” (priority 2021, published 2024).

Columns and labels:
[1] = system: SARS-COV 2; conditions: reported by Joon-Yong Bae et al., bioRxiv, Jul. 28, 2020
[2] = system: influenza virus; conditions: reported by Joon-Yong Bae et al., bioRxiv, Jul. 28, 2020

Structure (SMILES) | in vitro anti-viral action on COVID-19 [1] | in vitro anti-viral action on influenza [2]
COc1ccc2nc3cc(Cl)ccc3c(Nc3cc(CN4CCCC4)c(O)c(CN4CCCC4)c3)c2n1 [pyronaridine, 4-[(7-chloro-2-methoxybenzo[b]-1,5-naphthyridin-10-yl)amino]-2,6-bis(1-pyrrolidinylmethyl)phenyl] | in vitro anti-viral action | in vitro anti-viral action
C[C@H]1[C@H](OC(=O)CCC(=O)O)O[C@@H]2O[C@@]3(C)CC[C@H]4[C@H](C)CC[C@@H]1[C@@]24OO3 [artesunate, dihydroartemisinine-12-alpha-succinate] | in vitro anti-viral action | in vitro anti-viral action
